Data published in US11286268B1, “EIF4E-inhibiting compounds and methods” (EFFECTOR THERAPEUTICS, INC., priority 2019, dated 2022).

Each compound was assayed against recombinant eIF4E (Homo sapiens (Human), UniProt P06730) (assay: Fluorescence polarization competition assay for eIF4E binding potency). Conditions: inhibition of eIF4E/EDA-m7GDP-ATTO-550 binding; calculated IC50 values, Table 4B; read-out: IC50.
In short: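 FP readout; IC50 fit from 8-point, 3-fold series. 75 nM eIF4E + 20 nM ATTO-550-labelled m7GDP probe, Tris pH 7.5/NaCl/DTT/Tween buffer, 1% DMSO final. 30 min RT equilibration, light-protected.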

Sequence of recombinant eIF4E (P06730 whole entry): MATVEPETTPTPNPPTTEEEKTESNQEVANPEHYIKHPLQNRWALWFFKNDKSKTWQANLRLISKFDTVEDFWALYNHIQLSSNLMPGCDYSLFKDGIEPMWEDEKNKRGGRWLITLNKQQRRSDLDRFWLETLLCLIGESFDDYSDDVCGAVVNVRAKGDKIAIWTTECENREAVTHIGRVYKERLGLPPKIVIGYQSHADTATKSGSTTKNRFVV

| SMILES | IC50 [nM] |
| --- | --- |
| Cc1nc2cnc(N3CCN(C)C4CC43)c(C#N)c2c(=O)n1CCOc1ccc(Cl)cc1-c1ccnc2c(C(=O)O)csc12 (stereo not shown) [compound 1301] | 15.5 |
| Cc1nc2cnc(N3CCN(CC(F)(F)F)CC3)c(C#N)c2c(=O)n1CCOc1ccc(Cl)cc1-c1ccnc2c(C(=O)O)csc12 [compound 1304] | 18.5 |
| Cc1nc2cnc(N3CCN(C4CC(F)(F)C4)CC3)c(C#N)c2c(=O)n1CCOc1ccc(Cl)cc1-c1ccnc2c(C(=O)O)csc12 [compound 1307] | 54.2 |
| Cc1nc2cnc(N3CCN4CC(F)(F)CC4C3)c(C#N)c2c(=O)n1CCOc1ccc(Cl)cc1-c1ccnc2c(C(=O)O)csc12 (stereo not shown) [compound 1311] | 13.3 |
| Cc1nc2cnc(N3CCN(C(C)(C)C)CC3)c(C#N)c2c(=O)n1CCOc1ccc(Cl)cc1-c1ccnc2c(C(=O)O)csc12 [compound 1313] | 42.6 |
| Cc1nc2cnc(N3CCN(C(C)C(F)(F)F)CC3)c(C#N)c2c(=O)n1CCOc1ccc(Cl)cc1-c1ccnc2c(C(=O)O)csc12 (stereo not shown) [compound 1315] | 13.1 |
| Cc1nc2cnc(N3CCN(C(C)(C)C(F)(F)F)CC3)c(C#N)c2c(=O)n1CCOc1ccc(Cl)cc1-c1ccnc2c(C(=O)O)csc12 [compound 1316] | 32.8 |
| Cc1nc2cnc(N3CCN(CC(C)(C)F)CC3)c(C#N)c2c(=O)n1CCOc1ccc(Cl)cc1-c1ccnc2c(C(=O)O)csc12 [compound 1317] | 33.5 |
| Cc1nc2cnc(N(C)C3CCN(C4CC4)CC3)c(C#N)c2c(=O)n1CCOc1ccc(Cl)cc1-c1ccnc2c(C(=O)O)csc12 [compound 1319] | 13.6 |
| Cc1nc2cnc(N(C)C3CCN(C4COC4)CC3)c(C#N)c2c(=O)n1CCOc1ccc(Cl)cc1-c1ccnc2c(C(=O)O)csc12 [compound 1320] | 27.7 |
| Cc1nc2cnc(N3CCN(C4COC4)CC3)c(C#N)c2c(=O)n1CC#Cc1ccc(Cl)cc1-c1ccnc2c(C(=O)O)csc12 [compound 1321] | 60.2 |
| Cc1nc2cnc(N3CC4(C3)CN(C3COC3)C4)c(C#N)c2c(=O)n1CC#Cc1ccc(Cl)cc1-c1ccnc2c(C(=O)O)csc12 [compound 1322] | 11.2 |
| Cc1nc2cnc(N(C)C3CCN(C)C3)c(C#N)c2c(=O)n1CCOc1ccc(Cl)cc1-c1ccnc2c(C(=O)O)csc12 (stereo not shown) [compound 1323] | 73 |
| Cc1nc2cnc(C#CCN(C)CC(F)(F)F)c(C#N)c2c(=O)n1CCOc1ccc(Cl)cc1-c1ccnc2c(C(=O)O)csc12 [compound 1327] | 19.3 |
| Cc1nc2cncc(SCCN(C)C)c2c(=O)n1CCOc1ccc(Cl)cc1-c1ccnc2c(C(=O)O)csc12 [compound 1331] | 91.8 |
| Cc1nc2cnc(C3=C(C(C)(C)C)CN(C)C3)c(C#N)c2c(=O)n1CCOc1ccc(Cl)cc1-c1ccnc2c(C(=O)O)csc12 [compound 1332] | 34.5 |
| Cc1nc2cnc(N3CCN(CCF)C(C)(C)C3)c(C#N)c2c(=O)n1CCOc1ccc(Cl)cc1-c1ccnc2c(C(=O)O)csc12 [compound 1333] | 26.2 |
| Cc1nc2cnc(N3CCN(CCS(C)(=O)=O)CC3)c(C#N)c2c(=O)n1CCOc1ccc(Cl)cc1-c1ccnc2c(C(=O)O)csc12 [compound 1339] | 36.4 |
| Cc1nc2cnc(N3CC(N4CCC(F)(F)CC4)C3)c(C#N)c2c(=O)n1CCOc1ccc(Cl)cc1-c1ccnc2c(C(=O)O)csc12 [compound 1340] | 44.2 |
| Cc1nc2cnc(N3CC(N4CC(F)(F)C4)C3)c(C#N)c2c(=O)n1CCOc1ccc(Cl)cc1-c1ccnc2c(C(=O)O)csc12 [compound 1341] | 21.5 |
| Cc1nc2cnc(SC3CCN(CC(F)(F)F)CC3)c(C#N)c2c(=O)n1CCOc1ccc(Cl)cc1-c1ccnc2c(C(=O)O)csc12 [compound 1349] | 36.5 |
| Cc1nc2cnc(N3C[C@@H](C)N(CC(F)F)[C@@H](C)C3)c(C#N)c2c(=O)n1CCOc1ccc(Cl)cc1-c1ccnc2c(C(=O)O)csc12 [compound 1350] | 35.1 |
| Cc1nc2cnc(N3CCN(C)C4(COC4)C3)c(C#N)c2c(=O)n1CCOc1ccc(Cl)cc1-c1ccnc2c(C(=O)O)csc12 [compound 1351] | 16 |
| Cc1nc2cnc(N3CCN(CC(F)F)CC3)c(C#N)c2c(=O)n1CC#Cc1ccc(Cl)cc1-c1ccnc2c(C(=O)O)csc12 [compound 1356] | 23.2 |
| Cc1nc2cnc(N3CCN(CC(F)C(F)(F)F)CC3)c(C#N)c2c(=O)n1CCOc1ccc(Cl)cc1-c1ccnc2c(C(=O)O)csc12 (stereo not shown) [compound 1358] | 18.3 |
| Cc1nc2cnc(N(C)C3CCN(CCC(F)(F)F)CC3)c(C#N)c2c(=O)n1CCOc1ccc(Cl)cc1-c1ccnc2c(C(=O)O)csc12 [compound 1360] | 16.8 |

Further lines, results first:

| IC50 [nM] | SMILES |
| --- | --- |
| 18.1 | Cc1nc2cc(C(F)(F)F)c(N3CCN(C)CC3)nc2c(=O)n1CCOc1ccc(Cl)cc1-c1ccnc2c(C(=O)NS(C)(=O)=O)csc12 [compound 1300] |
| 30.7 | Cc1nc2cnc(N3CCN(CCF)CC3)c(C#N)c2c(=O)n1CCOc1ccc(Cl)cc1-c1ccnc2c(C(=O)O)csc12 [compound 1302] |
| 36.6 | Cc1nc2cnc(N3CCN(CC(F)F)CC3)c(C#N)c2c(=O)n1CCOc1ccc(Cl)cc1-c1ccnc2c(C(=O)O)csc12 [compound 1303] |
| 26.5 | Cc1nc2cnc(N3CCN(C)C(C(F)F)C3)c(C#N)c2c(=O)n1CCOc1ccc(Cl)cc1-c1ccnc2c(C(=O)O)csc12 (stereo not shown) [compound 1305] |
| 38.9 | Cc1nc2cnc(N3CCN(C4CC4)CC3)c(C#N)c2c(=O)n1CCOc1ccc(Cl)cc1-c1ccnc2c(C(=O)O)csc12 [compound 1306] |
| 41.5 | Cc1nc2cnc(N3CCN(CCC(F)(F)F)CC3)c(C#N)c2c(=O)n1CCOc1ccc(Cl)cc1-c1ccnc2c(C(=O)O)csc12 [compound 1308] |
| 37.2 | Cc1nc2cnc(N3CCN(C(C)(C)C(F)F)CC3)c(C#N)c2c(=O)n1CCOc1ccc(Cl)cc1-c1ccnc2c(C(=O)O)csc12 [compound 1309] |
| 21.3 | Cc1nc2cnc(N3CCN(C4(C(F)F)CC4)CC3)c(C#N)c2c(=O)n1CCOc1ccc(Cl)cc1-c1ccnc2c(C(=O)O)csc12 [compound 1310] |
| 8.29 | Cc1nc2cnc(N3CCN(C(C)C(F)F)CC3)c(C#N)c2c(=O)n1CCOc1ccc(Cl)cc1-c1ccnc2c(C(=O)O)csc12 (stereo not shown) [compound 1312] |
| 18.1 | Cc1nc2cnc(N3CC4(C3)CN(C3CC3)C4)c(C#N)c2c(=O)n1CCOc1ccc(Cl)cc1-c1ccnc2c(C(=O)O)csc12 [compound 1314] |
| 27.1 | Cc1nc2cnc(-c3ccc(CN(C)C)nc3)c(C#N)c2c(=O)n1CCOc1ccc(Cl)cc1-c1ccnc2c(C(=O)O)csc12 [compound 1325] |
| 12.8 | Cc1nc2cnc(C#CCN(C)CCF)c(C#N)c2c(=O)n1CCOc1ccc(Cl)cc1-c1ccnc2c(C(=O)O)csc12 [compound 1326] |
| 24.8 | Cc1nc2cnc(/C=C/CN(C)CCF)c(C#N)c2c(=O)n1CCOc1ccc(Cl)cc1-c1ccnc2c(C(=O)O)csc12 [compound 1328] |
| 35.2 | Cc1nc2cnc(C#CC3(N(C)C)CC3)c(C#N)c2c(=O)n1CCOc1ccc(Cl)cc1-c1ccnc2c(C(=O)O)csc12 [compound 1329] |
| 13 | Cc1nc2cnc(C3CN(C)CCO3)c(C#N)c2c(=O)n1CCOc1ccc(Cl)cc1-c1ccnc2c(C(=O)O)csc12 (stereo not shown) [compound 1330] |
| 51.3 | Cc1nc2cnc(N3CCN(C)C(C(F)(F)F)C3)c(C#N)c2c(=O)n1CCOc1ccc(Cl)cc1-c1ccnc2c(C(=O)O)csc12 (stereo not shown) [compound 1334] |

| IC50 [nM] | SMILES |
| --- | --- |
| 12.8 | Cc1nc2cnc(N3CCN(C)CC3C)c(C#N)c2c(=O)n1CCOc1ccc(Cl)cc1-c1ccnc2c(C(=O)O)csc12 (stereo not shown) [compound 1335] |
| 13 | Cc1nc2cnc(N3CCN(C4(CF)CC4)CC3)c(C#N)c2c(=O)n1CCOc1ccc(Cl)cc1-c1ccnc2c(C(=O)O)csc12 [compound 1336] |
| 51.9 | Cc1nc2cnc(N3CCN(C)C4(CC4)C3)c(C#N)c2c(=O)n1CCOc1ccc(Cl)cc1-c1ccnc2c(C(=O)O)csc12 [compound 1337] |
| 9.5 | Cc1nc2cnc(N3CCN(CCF)C4(CC4)C3)c(C#N)c2c(=O)n1CCOc1ccc(Cl)cc1-c1ccnc2c(C(=O)O)csc12 [compound 1338] |
| 30.4 | Cc1nc2cnc(N3CCN(C)C(CC#N)C3)c(C#N)c2c(=O)n1CCOc1ccc(Cl)cc1-c1ccnc2c(C(=O)O)csc12 (stereo not shown) [compound 1342] |
| 40.6 | Cc1nc2cnc(N3CCN(C(C)(C)CC#N)CC3)c(C#N)c2c(=O)n1CCOc1ccc(Cl)cc1-c1ccnc2c(C(=O)O)csc12 [compound 1343] |
| 18.3 | Cc1nc2cnc(C#CC3CCCN3C3CC3)c(C#N)c2c(=O)n1CCOc1ccc(Cl)cc1-c1ccnc2c(C(=O)O)csc12 (stereo not shown) [compound 1344] |
| 34.5 | Cc1nc2cnc(CCCN(C)CCF)c(C#N)c2c(=O)n1CCOc1ccc(Cl)cc1-c1ccnc2c(C(=O)O)csc12 [compound 1345] |
| 19.7 | Cc1nc2cnc(C#CCN(C)C3(C)CC3)c(C#N)c2c(=O)n1CCOc1ccc(Cl)cc1-c1ccnc2c(C(=O)O)csc12 [compound 1346] |
| 41.4 | Cc1nc2cnc(N3CCN(C)C4CC43)c(C#N)c2c(=O)n1C/C=C/c1ccc(Cl)cc1-c1ccnc2c(C(=O)O)csc12 (stereo not shown) [compound 1347] |
| 12.2 | Cc1nc2cnc(N3CCN4CCC3C4)c(C#N)c2c(=O)n1CCOc1ccc(Cl)cc1-c1ccnc2c(C(=O)O)csc12 (stereo not shown) [compound 1348] |
| 17.2 | Cc1nc2cnc(N3CCN(CCC(F)(F)F)CC3)c(C#N)c2c(=O)n1CC#Cc1ccc(Cl)cc1-c1ccnc2c(C(=O)O)csc12 [compound 1353] |
| 21.6 | Cc1nc2cnc(N3CCN(C4CC4)CC3)c(C#N)c2c(=O)n1CC#Cc1ccc(Cl)cc1-c1ccnc2c(C(=O)O)csc12 [compound 1354] |
| 24.8 | Cc1nc2cnc(N3CCN(C4CC(F)(F)C4)CC3)c(C#N)c2c(=O)n1CC#Cc1ccc(Cl)cc1-c1ccnc2c(C(=O)O)csc12 [compound 1355] |
| 39.7 | Cc1nc2cnc(N3CCN(CC(C(F)(F)F)C(F)(F)F)CC3)c(C#N)c2c(=O)n1CCOc1ccc(Cl)cc1-c1ccnc2c(C(=O)O)csc12 [compound 1359] |
| 21.3 | Cc1nc2cnc(N3CCN(C4(CC(F)(F)F)CC4)CC3)c(C#N)c2c(=O)n1CCOc1ccc(Cl)cc1-c1ccnc2c(C(=O)O)csc12 [compound 1361] |
